Data taken from PubChem BioAssay AID248 (DTP/NCI, 2004).
Values joined by “and” are separate entries in the source; they are usually repeats but may differ in a detail not shown here. Equal entries are not always repeated. Inconclusive results and toxic doses are left out. No stated cut-off is given here; in the data, active means T/C of 150% or more; inactive means T/C below 125%.

System: L1210 leukemia ip in BDF1 mice, survival T/C
Experiment: NCI In Vivo Anticancer Drug Screen. Data for tumor model L1210 Leukemia (intraperitoneal) in B6D2F1 (BDF1) mice
Conditions: endpoint: mean survival time, higher = longer survival
Method in brief: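 Value reflects the ratio of survival in compound-treated mice to survival in vehicle-treated controls, with both groups carrying the same transplanted tumor.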

[1] = dose: 50.0 mg/kg/injection, schedule: Q04DX002 (ip), vehicle: Klucel (hydroxypropylcellulose) (HPC)
[2] = dose: 100.0 mg/kg/injection, schedule: Q04DX002 (ip), vehicle: Klucel (hydroxypropylcellulose) (HPC)
[3] = dose: 100.0 mg/kg/injection, schedule: Q01DX001 (ip), vehicle: saline
[4] = dose: 200.0 mg/kg/injection, schedule: Q01DX001 (ip), vehicle: saline
[5] = dose: 400.0 mg/kg/injection, schedule: Q01DX001 (ip), vehicle: saline
[6] = dose: 100.0 mg/kg/injection, schedule: Q04DX003 (ip), vehicle: saline with Tween-80
[7] = dose: 200.0 mg/kg/injection, schedule: Q04DX003 (ip), vehicle: saline with Tween-80
[8] = dose: 400.0 mg/kg/injection, schedule: Q04DX003 (ip), vehicle: saline with Tween-80
[9] = dose: 100.0 mg/kg/injection, schedule: Q01DX009 (ip), vehicle: saline with Tween-80

Measured: T/C

O=C(CCc1ccc(Cl)cc1)Nc1ccccc1
inactive: dose: 25.0 mg/kg/injection, schedule: Q04DX002 (ip), vehicle: Klucel (hydroxypropylcellulose) (HPC) 97 % of control | [1] 86 % of control | [2] 93 % of control

CCCCn1c(N)cc(=O)[nH]c1=S
inactive: dose: 50.0 mg/kg/injection, schedule: Q01DX001 (ip), vehicle: saline 100 % of control | [3] 93 % of control | [4] 106 % of control | [5] 100 % of control

CCC(CC)OC(=O)c1cc([N+](=O)[O-])cc([N+](=O)[O-])c1
inactive: [6] 91 % of control | [7] 87 % of control | [8] 94 % of control

CC(=O)Oc1ccc(OC(C)=O)c2c1C=CC=CC2
inactive: [6] 104 % of control | [7] 86 % of control | [8] 94 % of control

O=C(Nc1cccc(C2=NCCCN2)c1)Nc1cc(C(=O)Nc2ccc(C3=NCCCN3)cc2)ccc1C(=O)Nc1ccc(C2=NCCCN2)cc1
117 % of control and 265 % of control: dose: 3.75 mg/kg/injection, schedule: Q01DX Z (ip), vehicle: saline
inactive: dose: 0.47 mg/kg/injection, schedule: Q01DX Z (ip), vehicle: saline 103 % of control | dose: 0.94 mg/kg/injection, schedule: Q01DX Z (ip), vehicle: saline 95 % of control | dose: 1.88 mg/kg/injection, schedule: Q01DX Z (ip), vehicle: saline 104 % of control | dose: 7.5 mg/kg/injection, schedule: Q01DX Z (oral), vehicle: saline 98 % of control | dose: 15.0 mg/kg/injection, schedule: Q01DX Z (ip), vehicle: saline 96 % of control | dose: 15.0 mg/kg/injection, schedule: Q01DX Z (oral), vehicle: saline 104 % of control | dose: 30.0 mg/kg/injection, schedule: Q01DX Z (oral), vehicle: saline 104 % of control | dose: 60.0 mg/kg/injection, schedule: Q01DX Z (oral), vehicle: saline 104 % of control

CN(C)Cc1ccccc1COC(=O)/C=C/c1ccccc1
inactive: [1] 101 % of control | [2] 94 % of control | dose: 200.0 mg/kg/injection, schedule: Q04DX002 (ip), vehicle: Klucel (hydroxypropylcellulose) (HPC) 97 % of control

CCOC1(OCC)CS(=O)(=O)C1Cl (stereo not drawn)
inactive: dose: 50.0 mg/kg/injection, schedule: Q01DX001 (ip), vehicle: saline with Tween-80 107 % of control | dose: 100.0 mg/kg/injection, schedule: Q01DX001 (ip), vehicle: saline with Tween-80 98 % of control | dose: 200.0 mg/kg/injection, schedule: Q01DX001 (ip), vehicle: saline with Tween-80 98 % of control

CCOC(=O)c1ccc(NC(=O)Oc2ccccc2C(C)C)cc1
inactive: [9] 97 % of control and 107 % of control | dose: 100.0 mg/kg/injection, schedule: Q04DX002 (ip), vehicle: saline with Tween-80 101 % of control | [6] 97 % of control | dose: 200.0 mg/kg/injection, schedule: Q01DX009 (ip), vehicle: saline with Tween-80 93 % of control and 97 % of control | dose: 200.0 mg/kg/injection, schedule: Q04DX002 (ip), vehicle: saline with Tween-80 92 % of control | [7] 93 % of control | dose: 400.0 mg/kg/injection, schedule: Q01DX009 (ip), vehicle: saline with Tween-80 89 % of control | dose: 400.0 mg/kg/injection, schedule: Q04DX002 (ip), vehicle: saline with Tween-80 92 % of control | [8] 102 % of control

Nc1[nH]c(=O)ncc1-c1ccc(Cl)cc1
inactive: dose: 50.0 mg/kg/injection, schedule: Q01DX009 (ip), vehicle: Klucel (hydroxypropylcellulose) (HPC) 96 % of control | dose: 100.0 mg/kg/injection, schedule: Q01DX009 (ip), vehicle: Klucel (hydroxypropylcellulose) (HPC) 100 % of control

CCOC(=O)S(=O)(=O)c1ccc(C)cc1
inactive: dose: 100.0 mg/kg/injection, schedule: Q04DX003 (ip), vehicle: acetone 106 % of control | dose: 200.0 mg/kg/injection, schedule: Q04DX003 (ip), vehicle: acetone 96 % of control | dose: 400.0 mg/kg/injection, schedule: Q04DX003 (ip), vehicle: acetone 101 % of control

O=C/C=C/c1ccc([N+](=O)[O-])cc1
inactive: [3] 104 % of control | [9] 98 % of control | [4] 102 % of control | [5] 102 % of control

CCn1c2ccccc2c2cc(NC(=O)N(CCCl)N=O)ccc21
active: dose: 266.0 mg/kg/injection, schedule: Q01DX009 (ip), vehicle: carboxymethylcellulose (CMC) 188 % of control
inactive: dose: 177.0 mg/kg/injection, schedule: Q01DX009 (ip), vehicle: carboxymethylcellulose (CMC) 121 % of control
